Laboratory results taken from patent US20250084049A1, “POLYCATIONIC SALTS OF PHENOLIC COMPOUNDS AND USES THEREOF” (Firmenich Incorporated, priority 2021, published 2025).

Test: storage of the aqueous salt solution at room temperature under nitrogen
Assay type: physicochemical
Settings: ~10% aqueous solution, stored for several days at room temperature under nitrogen
Description: Naringenin (500 mg, 1.84 mmol) was suspended in water (2 mL) and while stirring a solution of NaOH (2 equiv.) in water (3 mL) was added dropwise. After addition was complete, the reaction was bubbled with nitrogen and stirring continued until the solution became homogeneous. […] MS 273 (M+3H−2Na)^+.
Naringenin (500 mg, 1.84 mmol) was suspended in water (2 mL) and while stirring a solution of KOH (2 equiv.) in water (3 mL) was added dropwise. After addition was complete, the reaction was bubbled with nitrogen and stirring continued until the solution became homogeneous. […] MS 273 (M+3H−2K)^+.
Phloterin (500 mg, 1.82 mmol) was suspended in water (2 mL) and while stirring a solution of NaOH (2 equiv.) in water (3 mL) was added dropwise. After addition was complete, the reaction was bubbled with nitrogen and stirring continued until the solution became homogeneous. […] MS 275 (M+3H−2Na)^+.
Phloterin (500 mg, 1.82 mmol) was suspended in water (2 mL) and while stirring a solution of KOH (2 equiv.) in water (3 mL) was added dropwise. After addition was complete, the reaction was bubbled with nitrogen and stirring continued until the solution became homogeneous. […] MS 275 (M+3H−2K)^+.

Row | Structure (SMILES) | stability of the solution on storage
1 | O=C1C[C@@H](c2ccc(O)cc2)Oc2cc(O)cc(O)c21.[Na].[Na] [Example 1, Disodium Salt of Naringenin] | without any significant change
2 | O=C1C[C@@H](c2ccc(O)cc2)Oc2cc(O)cc(O)c21.[K].[K] [Example 2, Dipotassium Salt of Naringenin] | without any significant change
3 | O=C(CCc1ccc(O)cc1)c1c(O)cc(O)cc1O.[K].[K] [Example 4, Dipotassium Salt of Phloterin] | without any significant change
4 | O=C(CCc1ccc(O)cc1)c1c(O)cc(O)cc1O.[Na].[Na] [Example 3, Disodium Salt of Phloterin] | without any significant change
